Biological target: recombinant human HPK1 (Homo sapiens (Human), UniProt Q92918)
Experiment: HPK1 kinase assay (ADP-Glo)
Assay type: biochemical
Conditions: 25 μM ATP, MBP substrate
Outline: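 Activity was read as ADP formed, detected by ADP-Glo luminescence after the reaction of 5 ng recombinant human HPK1 with MBP and ATP (stocks 0.5 μg/μl and 25 μM) for 40 min at 30 °C. Buffer was Tris pH 7.5 with MgCl2, BSA and DTT, with compound in 0.5% DMSO. IC50 came from inhibition curves.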

Chain of recombinant human HPK1 (Q92918 whole entry): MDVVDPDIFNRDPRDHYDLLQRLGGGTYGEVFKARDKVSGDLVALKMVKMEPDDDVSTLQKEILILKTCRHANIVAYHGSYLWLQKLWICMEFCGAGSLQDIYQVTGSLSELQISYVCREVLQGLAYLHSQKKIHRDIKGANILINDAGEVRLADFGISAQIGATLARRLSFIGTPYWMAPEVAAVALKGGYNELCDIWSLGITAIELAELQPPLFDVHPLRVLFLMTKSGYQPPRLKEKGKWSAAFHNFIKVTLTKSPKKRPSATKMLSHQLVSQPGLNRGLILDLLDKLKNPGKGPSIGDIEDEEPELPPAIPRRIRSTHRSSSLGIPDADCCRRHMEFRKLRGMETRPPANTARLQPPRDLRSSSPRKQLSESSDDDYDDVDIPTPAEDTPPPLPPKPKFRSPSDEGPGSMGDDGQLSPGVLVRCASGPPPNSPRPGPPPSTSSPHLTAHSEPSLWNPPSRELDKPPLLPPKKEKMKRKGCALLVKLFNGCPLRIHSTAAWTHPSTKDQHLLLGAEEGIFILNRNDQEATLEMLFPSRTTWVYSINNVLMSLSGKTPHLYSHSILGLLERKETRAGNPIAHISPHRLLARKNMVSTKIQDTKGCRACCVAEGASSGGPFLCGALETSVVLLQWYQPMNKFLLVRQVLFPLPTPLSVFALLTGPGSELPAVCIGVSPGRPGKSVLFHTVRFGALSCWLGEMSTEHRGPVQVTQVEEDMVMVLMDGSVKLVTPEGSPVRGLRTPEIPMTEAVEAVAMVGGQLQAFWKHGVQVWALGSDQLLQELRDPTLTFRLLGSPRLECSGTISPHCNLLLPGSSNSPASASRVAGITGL

Row | IC50 | Structure (SMILES)
1 | < 0.1 µM | O=C(Nc1cc2cc(-c3c(Cl)c(F)c(NC4CCC(O)C4)c4[nH]ncc34)ccn2n1)[C@@H]1C[C@@H]1F (stereo partly drawn) [Example 559, (1S,2S)-N-(5-(5-chloro-6-fluoro-7-((3-hydroxycyclopentyl)amino)-1H-indazol-4-yl)pyrazolo[1,5-a]pyridin-2-yl)-2-fluorocyclopropane-1-carboxamide]
2 | < 0.1 µM | CNC(=O)c1c(F)c(Cl)c(-c2ccn3nc(NC(=O)[C@@H]4C[C@@H]4F)cc3c2)c2cn[nH]c12 [Example 560, 5-chloro-6-fluoro-4-(2-((1S,2S)-2-fluorocyclopropane-1-carboxamido)pyrazolo[1,5-a]pyridin-5-yl)-N-methyl-1H-indazole-7-carboxamide]
3 | 0.101 to 0.5 µM | CC(=O)c1c(F)c(C)c(-c2ccn3nc(NC(=O)[C@@H]4C[C@@H]4F)cc3c2)c2cn[nH]c12 [Example 566, (1S,2S)-N-(5-(7-acetyl-6-fluoro-5-methyl-1H-indazol-4-yl)pyrazolo[1,5-a]pyridin-2-yl)-2-fluorocyclopropane-1-carboxamide]
4 | < 0.1 µM | CSc1c(F)cc2[nH]ncc2c1-c1ccn2nc(NC(=O)[C@H]3C[C@@H]3F)cc2c1 [Example 571, (1R,2S)-2-fluoro-N-(5-(6-fluoro-5-(methylthio)-1H-indazol-4-yl)pyrazolo[1,5-a]pyridin-2-yl)cyclopropane-1-carboxamide]
5 | < 0.1 µM | CSc1c(F)cc2[nH]ncc2c1-c1ccn2nc(NC(=O)[C@@H]3C[C@H]3F)cc2c1 [Example 572, (1S,2R)-2-fluoro-N-(5-(6-fluoro-5-(methylthio)-1H-indazol-4-yl)pyrazolo[1,5-a]pyridin-2-yl)cyclopropane-1-carboxamide]
6 | < 0.1 µM | CSc1c(F)cc2[nH]ncc2c1-c1ccn2nc(NC(=O)[C@H]3C[C@H]3F)cc2c1 [Example 573, (1R,2R)-2-fluoro-N-(5-(6-fluoro-5-(methylthio)-1H-indazol-4-yl)pyrazolo[1,5-a]pyridin-2-yl)cyclopropane-1-carboxamide]
7 | < 0.1 µM | CC(=O)c1c(F)c(Cl)c(-c2ccn3nc(NC(=O)[C@@H]4C[C@@H]4F)cc3c2)c2cn[nH]c12 [Example 575, (1S,2S)-N-(5-(7-acetyl-5-chloro-6-fluoro-1H-indazol-4-yl)pyrazolo[1,5-a]pyridin-2-yl)-2-fluorocyclopropane-1-carboxamide]
8 | > 1 µM | NC(=O)c1c(F)c(Cl)c(-c2ccn3nc(NC(=O)[C@@H]4C[C@@H]4F)cc3c2)c2cn[nH]c12 [Example 576, 5-chloro-6-fluoro-4-(2-((1S,2S)-2-fluorocyclopropane-1-carboxamido)pyrazolo[1,5-a]pyridin-5-yl)-1H-indazole-7-carboxamide]
9 | < 0.1 µM | CCOc1c(F)cc2[nH]ncc2c1-c1ccn2nc(NC(=O)[C@@H]3C[C@@H]3F)cc2c1 [Example 578, (1S,2S)-N-(5-(5-ethoxy-6-fluoro-1H-indazol-4-yl)pyrazolo[1,5-a]pyridin-2-yl)-2-fluorocyclopropane-1-carboxamide]
10 | < 0.1 µM | CNC(=O)OCCN(C)c1c(F)c(C)c(-c2ccn3nc(NC(=O)[C@@H]4C[C@@H]4F)cc3c2)c2cn[nH]c12 [Example 580, 2-((6-fluoro-4-(2-((1S,2S)-2-fluorocyclopropane-1-carboxamido)pyrazolo[1,5-a]pyridin-5-yl)-5-methyl-1H-indazol-7-yl)(methyl)amino)ethyl methylcarbamate]
11 | < 0.1 µM | O=C(Nc1cc2cc(-c3c(Cl)c(F)c(C(F)F)c4[nH]ncc34)ccn2n1)[C@@H]1C[C@@H]1F [Example 581, (1S,2S)-N-(5-(5-chloro-7-(difluoromethyl)-6-fluoro-1H-indazol-4-yl)pyrazolo[1,5-a]pyridin-2-yl)-2-fluorocyclopropane-1-carboxamide]
12 | < 0.1 µM | Cc1c(F)c(C#N)c2[nH]ncc2c1-c1ccn2nc(NC(=O)[C@@H]3C[C@@H]3F)cc2c1 [Example 582, (1S,2S)-N-(5-(7-cyano-6-fluoro-5-methyl-1H-indazol-4-yl)pyrazolo[1,5-a]pyridin-2-yl)-2-fluorocyclopropane-1-carboxamide]
13 | < 0.1 µM | CN(C)c1c(F)cc(-c2ccn3nc(NC(=O)[C@@H]4C[C@@H]4F)cc3c2)c2cn[nH]c12 [Example 583, (1S,2S)-N-(5-(7-(dimethylamino)-6-fluoro-1H-indazol-4-yl)pyrazolo[1,5-a]pyridin-2-yl)-2-fluorocyclopropane-1-carboxamide]
14 | 0.101 to 0.5 µM | CNC(=O)c1c(F)c(C)c(-c2ccn3nc(NC(=O)[C@@H]4C[C@@H]4F)cc3c2)c2cn[nH]c12 [Example 584, 6-fluoro-4-(2-((1S,2S)-2-fluorocyclopropane-1-carboxamido)pyrazolo[1,5-a]pyridin-5-yl)-N,5-dimethyl-1H-indazole-7-carboxamide]
15 | < 0.1 µM | CCc1c(F)c(C(F)(F)F)c2[nH]ncc2c1-c1ccn2nc(NC(=O)[C@@H]3C[C@@H]3F)cc2c1 [Example 585, (1S,2S)-N-(5-(5-ethyl-6-fluoro-7-(trifluoromethyl)-1H-indazol-4-yl)pyrazolo[1,5-a]pyridin-2-yl)-2-fluorocyclopropane-1-carboxamide]
16 | < 0.1 µM | N#Cc1c(F)c(Cl)c(-c2ccn3nc(NC(=O)[C@@H]4C[C@@H]4F)cc3c2)c2cn[nH]c12 [Example 586, (1S,2S)-N-(5-(5-chloro-7-cyano-6-fluoro-1H-indazol-4-yl)pyrazolo[1,5-a]pyridin-2-yl)-2-fluorocyclopropane-1-carboxamide]
17 | < 0.1 µM | O=C(Nc1cc2cc(-c3cc(F)c(OC(F)(F)F)c4[nH]ncc34)ccn2n1)[C@@H]1C[C@@H]1F [Example 587, (1S,2S)-2-fluoro-N-(5-(6-fluoro-7-(trifluoromethoxy)-1H-indazol-4-yl)pyrazolo[1,5-a]pyridin-2-yl)cyclopropane-1-carboxamide]
18 | < 0.1 µM | CSc1c(F)cc(-c2ccn3nc(NC(=O)[C@@H]4C[C@@H]4F)cc3c2)c2cn[nH]c12 [Example 589, (1S,2S)-2-fluoro-N-(5-(6-fluoro-7-(methylthio)-1H-indazol-4-yl)pyrazolo[1,5-a]pyridin-2-yl)cyclopropane-1-carboxamide]
19 | < 0.1 µM | Cc1c(F)c(C(F)F)c2[nH]ncc2c1-c1ccn2nc(NC(=O)[C@@H]3C[C@@H]3F)cc2c1 [Example 591, (1S,2S)-N-(5-(7-(difluoromethyl)-6-fluoro-5-methyl-1H-indazol-4-yl)pyrazolo[1,5-a]pyridin-2-yl)-2-fluorocyclopropane-1-carboxamide]
20 | < 0.1 µM | Cc1c(F)c(OC(F)(F)F)c2[nH]ncc2c1-c1ccn2nc(NC(=O)[C@@H]3C[C@@H]3F)cc2c1 [Example 592, (1S,2S)-2-fluoro-N-(5-(6-fluoro-5-methyl-7-(trifluoromethoxy)-1H-indazol-4-yl)pyrazolo[1,5-a]pyridin-2-yl)cyclopropane-1-carboxamide]
21 | < 0.1 µM | CSc1ccc(-c2ccn3nc(NC(=O)[C@@H]4C[C@@H]4F)cc3c2)c2cn[nH]c12 [Example 593, (1S,2S)-2-fluoro-N-(5-(7-(methylthio)-1H-indazol-4-yl)pyrazolo[1,5-a]pyridin-2-yl)cyclopropane-1-carboxamide]
22 | < 0.1 µM | Cn1nnnc1-c1c(F)c(Cl)c(-c2ccn3nc(NC(=O)[C@@H]4C[C@@H]4F)cc3c2)c2cn[nH]c12 [Example 594, (1S,2S)-N-(5-(5-chloro-6-fluoro-7-(1-methyl-1H-tetrazol-5-yl)-1H-indazol-4-yl)pyrazolo[1,5-a]pyridin-2-yl)-2-fluorocyclopropane-1-carboxamide]
23 | 0.101 to 0.5 µM | CN(C)c1ccc(-c2ccn3nc(NC(=O)[C@@H]4C[C@@H]4F)cc3c2)c2cn[nH]c12 [Example 595, (1S,2S)-N-(5-(7-(dimethylamino)-1H-indazol-4-yl)pyrazolo[1,5-a]pyridin-2-yl)-2-fluorocyclopropane-1-carboxamide]
24 | < 0.1 µM | CN(c1ncccn1)c1c(F)c(Cl)c(-c2ccn3nc(NC(=O)[C@@H]4C[C@@H]4F)cc3c2)c2cn[nH]c12 [Example 596, (1S,2S)-N-(5-(5-chloro-6-fluoro-7-(methyl(pyrimidin-2-yl)amino)-1H-indazol-4-yl)pyrazolo[1,5-a]pyridin-2-yl)-2-fluorocyclopropane-1-carboxamide]
25 | < 0.1 µM | CSc1c(F)c(F)c2[nH]ncc2c1-c1ccn2nc(NC(=O)[C@H]3C[C@H]3F)cc2c1 [Example 598, (1R,2R)-N-(5-(6,7-difluoro-5-(methylthio)-1H-indazol-4-yl)pyrazolo[1,5-a]pyridin-2-yl)-2-fluorocyclopropane-1-carboxamide]
26 | < 0.1 µM | CSc1c(F)c(F)c2[nH]ncc2c1-c1ccn2nc(NC(=O)[C@@H]3C[C@H]3F)cc2c1 [Example 599, (1S,2R)-N-(5-(6,7-difluoro-5-(methylthio)-1H-indazol-4-yl)pyrazolo[1,5-a]pyridin-2-yl)-2-fluorocyclopropane-1-carboxamide]
27 | < 0.1 µM | CSc1c(F)c(F)c2[nH]ncc2c1-c1ccn2nc(NC(=O)[C@H]3C[C@@H]3F)cc2c1 [Example 600, (1R,2S)-N-(5-(6,7-difluoro-5-(methylthio)-1H-indazol-4-yl)pyrazolo[1,5-a]pyridin-2-yl)-2-fluorocyclopropane-1-carboxamide]
28 | < 0.1 µM | O=C(Nc1cc2cc(-c3c(Cl)c(F)c(Nc4ncccn4)c4[nH]ncc34)ccn2n1)[C@@H]1C[C@@H]1F [Example 601, (1S,2S)-N-(5-(5-chloro-6-fluoro-7-(pyrimidin-2-ylamino)-1H-indazol-4-yl)pyrazolo[1,5-a]pyridin-2-yl)-2-fluorocyclopropane-1-carboxamide]
29 | < 0.1 µM | CCc1c(F)c(SC(C)(C)C#N)c2[nH]ncc2c1-c1ccn2nc(NC(=O)[C@@H]3C[C@@H]3F)cc2c1 [Example 603, (1S,2S)-N-(5-(7-((2-cyanopropan-2-yl)thio)-5-ethyl-6-fluoro-1H-indazol-4-yl)pyrazolo[1,5-a]pyridin-2-yl)-2-fluorocyclopropane-1-carboxamide]
